Experimental data taken from ChEMBL document CHEMBL3352542, “Synthesis, biological evaluation and molecular modeling study of 2-(1,3,4-thiadiazolyl-thio and 4-methyl-thiazolyl-thio)-quinazolin-4-ones as a new class of DHFR inhibitors” (Bioorg Med Chem Lett, 2014).
Active and inactive are the calls of the source.

How the values were obtained:
A498 = assay: Growth inhibition of human A498 cells at 10 uM after 48 hrs; type: functional
SR = assay: Growth inhibition of human SR cells at 10 uM after 48 hrs; type: functional
Pseudomonas aeruginosa = assay: Antimicrobial activity against Pseudomonas aeruginosa assessed as inhibition zone at 200 ug/disk after 24 hrs by disc-diffusion method; type: functional; conditions: read-out: IZ
NCI-H226 = assay: Growth inhibition of human NCI-H226 cells at 10 uM after 48 hrs; type: functional
A549 = assay: Growth inhibition of human A549 cells at 10 uM after 48 hrs; type: functional
UO-31 = assay: Growth inhibition of human UO31 cells at 10 uM after 48 hrs; type: functional
786-0 = assay: Growth inhibition of human 786-0 cells at 10 uM after 48 hrs; type: functional
HCT-15 = assay: Growth inhibition of human HCT15 cells at 10 uM after 48 hrs; type: functional
HT-29 = assay: Growth inhibition of human HT-29 cells at 10 uM after 48 hrs; type: functional
RPMI-8226 = assay: Growth inhibition of human RPMI8226 cells at 10 uM after 48 hrs; type: functional
SF-539 = assay: Growth inhibition of human SF539 cells at 10 uM after 48 hrs; type: functional
MDA-MB-231 = assay: Growth inhibition of human MDA-MB-231 cells at 10 uM after 48 hrs; type: functional
Bacillus subtilis [1] = assay: Antimicrobial activity against Bacillus subtilis assessed as inhibition of visible growth after 24 hrs by disc-diffusion method; type: functional, organism-based
UACC-257 = assay: Growth inhibition of human UACC257 cells at 10 uM after 48 hrs; type: functional
SF-295 = assay: Growth inhibition of human SF295 cells at 10 uM after 48 hrs; type: functional
Staphylococcus aureus [2] = assay: Antimicrobial activity against Staphylococcus aureus assessed as inhibition zone at 200 ug/disk after 24 hrs by disc-diffusion method; type: functional; conditions: read-out: IZ
RXF 393 = assay: Growth inhibition of human RXF393 cells at 10 uM after 48 hrs; type: functional
PC-3 = assay: Growth inhibition of human PC3 cells at 10 uM after 48 hrs; type: functional
MDA-MB-435 = assay: Growth inhibition of human MDA-MB-435 cells at 10 uM after 48 hrs; type: functional
CCRF-CEM = assay: Growth inhibition of human CCRF-CEM cells at 10 uM after 48 hrs; type: functional
MCF7 = assay: Growth inhibition of human MCF7 cells at 10 uM after 48 hrs; type: functional
HL-60(TB) = assay: Growth inhibition of human HL-60(TB) cells at 10 uM after 48 hrs; type: functional
MOLT-4 = assay: Growth inhibition of human MOLT4 cells at 10 uM after 48 hrs; type: functional
HOP-92 = assay: Growth inhibition of human HOP92 cells at 10 uM after 48 hrs; type: functional
CAKI-1 = assay: Growth inhibition of human CAKI-1 cells at 10 uM after 48 hrs; type: functional
Staphylococcus aureus [3] = assay: Antimicrobial activity against Staphylococcus aureus assessed as inhibition of visible growth after 24 hrs by disc-diffusion method; type: functional, organism-based
HCT-116 = assay: Growth inhibition of human HCT116 cells at 10 uM after 48 hrs; type: functional
OVCAR-4 = assay: Growth inhibition of human OVCAR4 cells at 10 uM after 48 hrs; type: functional
SK-MEL-5 = assay: Growth inhibition of human SK-MEL-5 cells at 10 uM after 48 hrs; type: functional
SK-MEL-28 = assay: Growth inhibition of human SK-MEL-28 cells at 10 uM after 48 hrs; type: functional, cell-based
Bacillus subtilis [4] = assay: Antimicrobial activity against Bacillus subtilis assessed as inhibition zone at 200 ug/disk after 24 hrs by disc-diffusion method; type: functional; conditions: read-out: IZ
KM12 = assay: Growth inhibition of human KM12 cells at 10 uM after 48 hrs; type: functional
T47D = assay: Growth inhibition of human T47D cells at 10 uM after 48 hrs; type: functional
MDA-MB-468 = assay: Growth inhibition of human MDA-MB-468 cells at 10 uM after 48 hrs; type: functional
Escherichia coli [5] = assay: Antimicrobial activity against Escherichia coli assessed as inhibition of visible growth after 24 hrs by disc-diffusion method; type: functional, organism-based
UACC-62 = assay: Growth inhibition of human UACC62 cells at 10 uM after 48 hrs; type: functional
Dihydrofolate reductase = biological target: T1, Dihydrofolate reductase (Bos taurus, UniProt P00376); assay: Inhibition of bovine liver DHFR
T1 sequence (P00376 whole entry): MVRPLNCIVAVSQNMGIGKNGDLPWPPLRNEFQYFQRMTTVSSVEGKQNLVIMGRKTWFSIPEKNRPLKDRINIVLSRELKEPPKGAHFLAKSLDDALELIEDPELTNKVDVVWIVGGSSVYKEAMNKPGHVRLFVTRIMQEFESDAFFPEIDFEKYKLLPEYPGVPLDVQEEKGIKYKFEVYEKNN

Candida albicans = assay: Antimicrobial activity against Candida albicans assessed as inhibition zone at 200 ug/disk after 24 hrs by disc-diffusion method; type: functional; conditions: read-out: IZ
K562 = assay: Growth inhibition of human K562 cells at 10 uM after 48 hrs; type: functional
U-251 = assay: Growth inhibition of human U251 cells at 10 uM after 48 hrs; type: functional
SNB-19 = assay: Growth inhibition of human SNB19 cells at 10 uM after 48 hrs; type: functional
Malme-3M = assay: Growth inhibition of human MALME-3M cells at 10 uM after 48 hrs; type: functional
Hs-578T = assay: Growth inhibition of human Hs 578T cells at 10 uM after 48 hrs; type: functional
HOP-62 = assay: Growth inhibition of human HOP62 cells at 10 uM after 48 hrs; type: functional
Escherichia coli [6] = assay: Antimicrobial activity against Escherichia coli assessed as inhibition zone at 200 ug/disk after 24 hrs by disc-diffusion method; type: functional; conditions: read-out: IZ
NCI-H522 = assay: Growth inhibition of human NCI-H522 cells at 10 uM after 48 hrs; type: functional

Cc1ccc(-n2c(Sc3nnc(N)s3)nc3ccc(Cl)cc3c2=O)cc1
14 mm: zone of inhibition at 200 µg/disc (Pseudomonas aeruginosa)
18 mm: zone of inhibition at 200 µg/disc (Staphylococcus aureus [2]) | zone of inhibition at 200 µg/disc (Escherichia coli [6])
10 mm: zone of inhibition at 200 µg/disc (Candida albicans)
active: Activity (Bacillus subtilis [1]) | Activity (Staphylococcus aureus [3]) | Activity (Escherichia coli [5])
inactive: growth inhibition (GI) (A498) | growth inhibition (GI) (SR) | growth inhibition (GI) (NCI-H226) | growth inhibition (GI) (A549) | growth inhibition (GI) (UO-31) | growth inhibition (GI) (786-0) | growth inhibition (GI) (HCT-15) | growth inhibition (GI) (HT-29) | growth inhibition (GI) (RPMI-8226) | growth inhibition (GI) (SF-539) | growth inhibition (GI) (MDA-MB-231) | growth inhibition (GI) (UACC-257) | growth inhibition (GI) (SF-295) | growth inhibition (GI) (RXF 393) | growth inhibition (GI) (PC-3) | growth inhibition (GI) (MDA-MB-435) | growth inhibition (GI) (CCRF-CEM) | growth inhibition (GI) (MCF7) | growth inhibition (GI) (HL-60(TB)) | growth inhibition (GI) (MOLT-4) | growth inhibition (GI) (HOP-92) | growth inhibition (GI) (CAKI-1) | growth inhibition (GI) (HCT-116) | growth inhibition (GI) (OVCAR-4) | growth inhibition (GI) (SK-MEL-5) | growth inhibition (GI) (SK-MEL-28) | growth inhibition (GI) (KM12) | growth inhibition (GI) (T47D) | growth inhibition (GI) (MDA-MB-468) | growth inhibition (GI) (UACC-62) | growth inhibition (GI) (K562) | growth inhibition (GI) (U-251) | growth inhibition (GI) (SNB-19) | growth inhibition (GI) (Malme-3M) | growth inhibition (GI) (Hs-578T) | growth inhibition (GI) (HOP-62) | growth inhibition (GI) (NCI-H522)
8 µM: IC50 (Dihydrofolate reductase)
20 mm: zone of inhibition at 200 µg/disc (Bacillus subtilis [4])

Cc1ccc2nc(Sc3nnc(N)s3)n(-c3ccccc3)c(=O)c2c1
inactive: growth inhibition (GI) (A498) | growth inhibition (GI) (SR) | growth inhibition (GI) (NCI-H226) | growth inhibition (GI) (A549) | growth inhibition (GI) (UO-31) | growth inhibition (GI) (786-0) | growth inhibition (GI) (HCT-15) | growth inhibition (GI) (HT-29) | growth inhibition (GI) (RPMI-8226) | growth inhibition (GI) (SF-539) | growth inhibition (GI) (MDA-MB-231) | growth inhibition (GI) (UACC-257) | growth inhibition (GI) (SF-295) | growth inhibition (GI) (RXF 393) | growth inhibition (GI) (PC-3) | growth inhibition (GI) (MDA-MB-435) | growth inhibition (GI) (CCRF-CEM) | growth inhibition (GI) (MCF7) | growth inhibition (GI) (HL-60(TB)) | growth inhibition (GI) (MOLT-4) | growth inhibition (GI) (HOP-92) | growth inhibition (GI) (CAKI-1) | growth inhibition (GI) (HCT-116) | growth inhibition (GI) (OVCAR-4) | growth inhibition (GI) (SK-MEL-5) | growth inhibition (GI) (SK-MEL-28) | growth inhibition (GI) (KM12) | growth inhibition (GI) (T47D) | growth inhibition (GI) (MDA-MB-468) | growth inhibition (GI) (UACC-62) | growth inhibition (GI) (K562) | growth inhibition (GI) (U-251) | growth inhibition (GI) (SNB-19) | growth inhibition (GI) (Malme-3M) | growth inhibition (GI) (Hs-578T) | growth inhibition (GI) (HOP-62) | growth inhibition (GI) (NCI-H522)
8 mm: zone of inhibition at 200 µg/disc (Pseudomonas aeruginosa) | zone of inhibition at 200 µg/disc (Staphylococcus aureus [2]) | zone of inhibition at 200 µg/disc (Bacillus subtilis [4]) | zone of inhibition at 200 µg/disc (Candida albicans) | zone of inhibition at 200 µg/disc (Escherichia coli [6])
7 µM: IC50 (Dihydrofolate reductase)
